Results reported in article PMC7259758 (PLoS ONE, 2020).

Legend:
[1] = target: T1, PYK2 (h) (Homo sapiens, UniProt Q14289); experiment: Radiometric protein kinase assay (Eurofins); type: biochemical; details: 40 min; ATP 90 μM; read-out: PYK2 IC50
T1 construct: purchased Eurofins, Dundee, Scotland
Method: (§3) Enzymatic biochemical activities were evaluated in radiometric protein kinase assays (Eurofins, Dundee, Scotland). Kinases are incubated with buffer, substrate and [γ-^33P]-ATP (specific activity approx. 500 cpm/pmol, concentration as required). The reaction is initiated by the addition of the MgATP mix. After incubation for 40 minutes at room temperature, the reaction is stopped by the addition of 3% phosphoric acid solution. 10 μL of the reaction is then spotted onto a P30 filtermat and washed three times for 5 minutes in 75 mM phosphoric acid and once in methanol prior to drying and scintillation counting. All compounds are prepared to 50x final assay concentration in 100% DMSO. Positive control wells contain all components of the reaction with 2% DMSO. Blank wells contain all components of the reaction, with a reference inhibitor replacing the compound of interest. […] Compounds were screened at 1 μM in duplicate or tested at 10 concentrations at half log dilution starting from 10 μM in singlicate. Dose response curves were fitted with four parameter logistic curve to obtain IC50 values.

[2] = system: phosphorylation of SF3B1; experiment: Western blot of nuclear extracts, phosphor-SF3B1; details: HCT116 and Rh18 cells, 4 h; SD6 10 μM, compound 1 10 μM, compound 2 5 μM
Method: (§4) HCT116 cells were seeded at 3 million cells per 100 mm culture plate. The next day cells were treated with 5 μM or 10 μM of each compound for 4h and 8h. […] The pellet was snap frozen on dry ice and then thawed and spun at 12K rpm for 5 min, 4C. The supernatant was collected (nuclear extract) and protein concentrations determined using BCA Protein Assay Kit. […] The proteins were transferred to PVDF membrane using a wet transfer system. […] After the secondary antibody incubation, membranes were washed 4X with PBS containing 0.1% Tween-20 and 1X with PBS before imaging using the Li-Cor Odyssey imaging system.
(§5) Lanes 6 to 10 are nuclear extracts from Rh18 cells.

[3] = system: phosphorylation of SR proteins; experiment: Western blot of nuclear extracts, phosphor-SR proteins; details: HCT116 and Rh18 cells, 4 h; SD6 10 μM, compound 1 10 μM, compound 2 5 μM, compound 3 10 μM
Method: as §4, §5

[4] = target: T2, SRPK3 (h) (Homo sapiens, UniProt Q9UPE1); experiment: Radiometric protein kinase assay (Eurofins); type: biochemical; details: ATP 15 μM
T2 construct: purchased Eurofins, Dundee, Scotland
Method: (§1) Enzymatic biochemical activities were evaluated in radiometric protein kinase assays (Eurofins, Dundee, Scotland). Kinases are incubated with buffer, substrate and [γ-^33P]-ATP (specific activity approx. 500 cpm/pmol, concentration as required). The reaction is initiated by the addition of the MgATP mix. After incubation for 40 minutes at room temperature, the reaction is stopped by the addition of 3% phosphoric acid solution. 10 μL of the reaction is then spotted onto a P30 filtermat and washed three times for 5 minutes in 75 mM phosphoric acid and once in methanol prior to drying and scintillation counting. All compounds are prepared to 50x final assay concentration in 100% DMSO. Positive control wells contain all components of the reaction with 2% DMSO. Blank wells contain all components of the reaction, with a reference inhibitor replacing the compound of interest. Each kinase is assigned a standard assay concentration of ATP within 20 μM of its apparent Km. Compounds were screened at 1 μM in duplicate or tested at 10 concentrations at half log dilution starting from 10 μM in singlicate. Dose response curves were fitted with four parameter logistic curve to obtain IC50 values. […]
(§2) Staurosporine is used as reference for all tested enzymes except for SRPK3 (reference inhibitor: K-252a. Nocardiopsis sp), NEK2 (reference inhibitor: […]), and CK2, CK2α2, MAPK1, MAPK2 (reference inhibitor: PKR Inhibitor). See Table 1 below for additional details.

[5] = target: T3, MAPK1 (h) (Homo sapiens, UniProt P27361); experiment: Radiometric protein kinase assay (Eurofins); type: biochemical; details: 40 min; read-out: MAPK1 IC50
T3 construct: purchased Eurofins, Dundee, Scotland
Method: as §1, §2

[6] = target: T4, SRPK2 (h) (Homo sapiens, UniProt P78362); experiment: Radiometric protein kinase assay (Eurofins); type: biochemical; details: 40 min; ATP 10 μM; read-out: SRPK2 IC50
T4 construct: purchased Eurofins, Dundee, Scotland
Method: as §1, §2

[7] = target: T5, CLK4(h) (Homo sapiens, UniProt Q9HAZ1); experiment: Radiometric protein kinase assay (Eurofins); type: biochemical; details: ATP 10 μM
T5 construct: purchased Eurofins, Dundee, Scotland
Method: as §1, §2

[8] = target: T6, DYRK1B (h) (Homo sapiens, UniProt Q9Y463); experiment: Radiometric protein kinase assay (Eurofins); type: biochemical; details: ATP 45 μM
T6 construct: purchased Eurofins, Dundee, Scotland
Method: as §1, §2

[9] = target: T7, CLK3(h) (Homo sapiens, UniProt P49761); experiment: Radiometric protein kinase assay (Eurofins); type: biochemical; details: ATP 90 μM
T7 construct: purchased Eurofins, Dundee, Scotland
Method: as §1, §2

[10] = target: T8, SRPK1(h) (Homo sapiens, UniProt Q96SB4); experiment: Radiometric protein kinase assay (Eurofins); type: biochemical; details: ATP 10 μM
T8 construct: purchased Eurofins, Dundee, Scotland
Method: as §1, §2

[11] = target: T9, CK2 (h) (Homo sapiens, UniProt P68400); experiment: Radiometric protein kinase assay (Eurofins); type: biochemical; details: 40 min; ATP 10 μM; read-out: CK2 IC50
T9 construct: purchased Eurofins, Dundee, Scotland
Method: as §1, §2

[12] = target: T10, DYRK1A(h) (Homo sapiens, UniProt Q13627); experiment: Radiometric protein kinase assay (Eurofins); type: biochemical; details: ATP 45 μM
T10 construct: purchased Eurofins, Dundee, Scotland
Method: as §1, §2

[13] = target: T11, MAPK2 (h) (Homo sapiens, UniProt P28482); experiment: Radiometric protein kinase assay (Eurofins); type: biochemical; details: 40 min; ATP 155 μM; read-out: MAPK2 IC50
T11 construct: purchased Eurofins, Dundee, Scotland
Method: as §1, §2

[14] = target: T12, GSK3α(h) (Homo sapiens, UniProt P49840); experiment: Radiometric protein kinase assay (Eurofins); type: biochemical; details: 40 min; ATP 10 μM; read-out: GSK3α(h) IC50
T12 construct: purchased Eurofins, Dundee, Scotland
Method: as §1, §2

[15] = target: T13, CK2α2 (h) (Homo sapiens, UniProt P19784); experiment: Radiometric protein kinase assay (Eurofins); type: biochemical; details: 40 min; ATP 10 μM; read-out: CK2a2 IC50
T13 construct: purchased Eurofins, Dundee, Scotland
Method: as §1, §2

[16] = target: T14, DYRK2 (h) (Homo sapiens, UniProt Q92630); experiment: Radiometric protein kinase assay (Eurofins); type: biochemical; details: ATP 15 μM
T14 construct: purchased Eurofins, Dundee, Scotland
T14 sequence (Q92630 1-601): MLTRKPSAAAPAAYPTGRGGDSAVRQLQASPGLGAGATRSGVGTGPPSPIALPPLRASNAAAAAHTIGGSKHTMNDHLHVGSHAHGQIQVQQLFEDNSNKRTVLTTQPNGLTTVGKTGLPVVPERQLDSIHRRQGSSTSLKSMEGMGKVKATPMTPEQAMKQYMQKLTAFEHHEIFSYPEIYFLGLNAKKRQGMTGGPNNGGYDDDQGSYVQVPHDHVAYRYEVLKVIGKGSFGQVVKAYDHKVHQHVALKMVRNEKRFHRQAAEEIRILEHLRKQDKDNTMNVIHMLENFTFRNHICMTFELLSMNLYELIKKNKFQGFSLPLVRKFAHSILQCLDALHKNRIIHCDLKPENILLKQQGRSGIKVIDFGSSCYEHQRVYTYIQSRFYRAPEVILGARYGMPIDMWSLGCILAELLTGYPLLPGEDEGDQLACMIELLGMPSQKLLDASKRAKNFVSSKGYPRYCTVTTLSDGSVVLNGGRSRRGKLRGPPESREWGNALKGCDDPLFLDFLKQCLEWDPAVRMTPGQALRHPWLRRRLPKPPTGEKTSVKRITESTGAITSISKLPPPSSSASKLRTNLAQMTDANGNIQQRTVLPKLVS
Method: as §1, §2

[17] = target: T15, AKT3 (Homo sapiens, UniProt Q9Y243); experiment: Radiometric protein kinase assay (Eurofins); type: biochemical; details: ATP 45 μM
T15 construct: purchased Eurofins, Dundee, Scotland
Method: as §1, §2

[18] = target: T16, CLK1(h) (Homo sapiens, UniProt P49759); experiment: Radiometric protein kinase assay (Eurofins); type: biochemical; details: ATP 10 μM
T16 construct: purchased Eurofins, Dundee, Scotland
Method: as §1, §2

[19] = target: T17, GSK3β(h) (Homo sapiens, UniProt P49841); experiment: Radiometric protein kinase assay (Eurofins); type: biochemical; details: 40 min; ATP 15 μM; read-out: GSK3β(h) IC50
T17 construct: purchased Eurofins, Dundee, Scotland
Method: as §3

[20] = system: triple-exon skipping of MDM2 pre-mRNA in SK-MEL-2/Luc-MDM2 cells; experiment: TESLR (Triple Exon Skipping Luciferase Reporter) dose response; details: Homo sapiens, SK-MEL-2, 4 h, read-out: TESLR EC50
Method: SK-MEL-2/MDM2-Luc stable cells were cultured in MEM medium with Earle's salts and L-glutamine containing 1 mM sodium pyruvate, 10% FCS and 10 mM Hepes and plated at a density of 10,000/well in 96-well plates and incubated overnight at 37°C in 5% CO2. The following day, cells were treated with serial dilutions of compounds for 4 hrs, ONE-Glo reagents (Promega) were added to measure the luciferase activity on an EnVision plate reader. SD6 and 0.5% DMSO were used as positive and negative controls, respectively. Relative luminescent units were plotted against corresponding drug concentrations and fitted with a standard four parameter sigmoidal curve with GraphPad Prism.
The TESLR assay in SK-MEL-2/Luc-MDM2 cells with 4 hour treatment. SK-MEL-2/Luc-MDM2 stable cells were plated at a density of 20,000 cells/well in 96-well plates and incubated overnight at 37°C in 5% CO2. The following day, cells were treated with either 0.5% DMSO or serial dilution of hits identified from the library screen in 0.5% DMSO for 4 hours. ONE-Glo™ EX reagent (Promega) was added to measure the luciferase activity using an EnVision plate reader. Relative luminescent units were plotted against corresponding drug concentrations and fitted with a standard four parameter sigmoidal curve with GraphPad Prism.
SK-MEL-2/Luc-MDM2 stable cells were plated at a density of 20,000 cells/well in 96-well plates and incubated overnight at 37°C in 5% CO2. The following day, cells were treated with serial dilutions of the indicated compounds for 4 hours and ONE-Glo™ EX reagents (Promega) were added to measure the luciferase activity.

T1 sequence (Q14289 whole entry): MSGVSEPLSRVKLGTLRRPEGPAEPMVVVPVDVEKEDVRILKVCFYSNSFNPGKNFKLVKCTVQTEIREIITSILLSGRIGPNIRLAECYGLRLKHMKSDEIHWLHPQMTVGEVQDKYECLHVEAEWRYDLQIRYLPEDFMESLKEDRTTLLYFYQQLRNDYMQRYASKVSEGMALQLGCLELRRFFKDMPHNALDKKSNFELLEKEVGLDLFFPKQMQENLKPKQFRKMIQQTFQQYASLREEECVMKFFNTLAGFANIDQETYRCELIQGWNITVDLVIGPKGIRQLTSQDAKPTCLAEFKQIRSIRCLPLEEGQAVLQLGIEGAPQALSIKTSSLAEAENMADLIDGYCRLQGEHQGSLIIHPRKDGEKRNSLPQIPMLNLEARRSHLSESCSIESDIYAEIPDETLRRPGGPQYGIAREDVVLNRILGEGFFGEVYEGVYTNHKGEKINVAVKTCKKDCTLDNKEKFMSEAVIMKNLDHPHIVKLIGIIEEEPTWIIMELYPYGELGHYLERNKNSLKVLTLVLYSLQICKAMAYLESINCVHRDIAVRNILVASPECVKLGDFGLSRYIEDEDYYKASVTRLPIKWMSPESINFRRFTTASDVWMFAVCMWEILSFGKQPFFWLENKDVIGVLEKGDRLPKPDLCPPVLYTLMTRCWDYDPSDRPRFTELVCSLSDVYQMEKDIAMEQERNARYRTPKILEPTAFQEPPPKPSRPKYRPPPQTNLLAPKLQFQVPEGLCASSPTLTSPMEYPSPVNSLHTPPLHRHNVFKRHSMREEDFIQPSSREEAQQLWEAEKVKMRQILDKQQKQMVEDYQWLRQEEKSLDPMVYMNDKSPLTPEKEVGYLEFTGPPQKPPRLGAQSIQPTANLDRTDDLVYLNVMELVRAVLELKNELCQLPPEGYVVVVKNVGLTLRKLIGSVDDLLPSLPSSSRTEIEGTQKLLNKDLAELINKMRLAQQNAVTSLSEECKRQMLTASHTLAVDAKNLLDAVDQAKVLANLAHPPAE
T6 sequence (Q9Y463 whole entry): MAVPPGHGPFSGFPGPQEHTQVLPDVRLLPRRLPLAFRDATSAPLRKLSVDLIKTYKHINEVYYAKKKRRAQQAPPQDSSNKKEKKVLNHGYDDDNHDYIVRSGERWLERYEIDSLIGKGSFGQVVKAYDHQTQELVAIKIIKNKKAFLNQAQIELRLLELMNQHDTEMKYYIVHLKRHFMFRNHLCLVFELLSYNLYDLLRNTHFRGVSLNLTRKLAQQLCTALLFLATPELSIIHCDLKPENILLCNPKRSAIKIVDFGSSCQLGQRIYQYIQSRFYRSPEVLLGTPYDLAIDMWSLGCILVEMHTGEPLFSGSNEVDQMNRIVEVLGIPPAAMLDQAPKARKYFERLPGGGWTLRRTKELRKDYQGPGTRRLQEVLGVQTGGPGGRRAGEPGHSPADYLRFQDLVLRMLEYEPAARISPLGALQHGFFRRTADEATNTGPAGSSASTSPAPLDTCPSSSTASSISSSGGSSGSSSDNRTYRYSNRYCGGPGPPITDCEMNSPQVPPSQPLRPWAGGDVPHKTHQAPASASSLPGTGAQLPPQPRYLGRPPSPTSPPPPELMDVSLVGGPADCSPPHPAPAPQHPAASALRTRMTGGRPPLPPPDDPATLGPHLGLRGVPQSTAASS
T12 sequence (P49840 whole entry): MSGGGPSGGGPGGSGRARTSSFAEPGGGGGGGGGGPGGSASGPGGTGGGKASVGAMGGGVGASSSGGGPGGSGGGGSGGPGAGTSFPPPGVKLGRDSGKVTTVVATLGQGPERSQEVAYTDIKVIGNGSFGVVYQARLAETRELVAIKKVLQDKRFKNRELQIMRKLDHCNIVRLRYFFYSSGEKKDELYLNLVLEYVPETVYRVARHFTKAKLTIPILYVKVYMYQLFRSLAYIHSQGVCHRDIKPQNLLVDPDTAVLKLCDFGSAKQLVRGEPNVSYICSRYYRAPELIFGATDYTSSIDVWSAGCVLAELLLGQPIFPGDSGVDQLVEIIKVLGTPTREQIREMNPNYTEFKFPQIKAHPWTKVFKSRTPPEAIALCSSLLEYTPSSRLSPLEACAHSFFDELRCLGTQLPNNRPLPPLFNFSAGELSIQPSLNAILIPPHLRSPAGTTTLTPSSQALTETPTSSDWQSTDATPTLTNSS
T17 sequence (P49841 whole entry): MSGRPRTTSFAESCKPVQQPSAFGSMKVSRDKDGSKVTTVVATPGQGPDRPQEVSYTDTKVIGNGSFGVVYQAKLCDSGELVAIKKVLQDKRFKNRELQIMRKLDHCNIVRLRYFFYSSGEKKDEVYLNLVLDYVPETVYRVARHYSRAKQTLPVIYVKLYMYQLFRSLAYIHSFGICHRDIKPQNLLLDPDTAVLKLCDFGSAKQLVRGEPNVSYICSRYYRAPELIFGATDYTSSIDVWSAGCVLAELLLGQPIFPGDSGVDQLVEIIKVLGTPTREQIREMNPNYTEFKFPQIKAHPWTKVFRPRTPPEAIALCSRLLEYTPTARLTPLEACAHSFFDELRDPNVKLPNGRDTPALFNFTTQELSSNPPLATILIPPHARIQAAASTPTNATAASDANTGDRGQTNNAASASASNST
T5 sequence (Q9HAZ1 whole entry): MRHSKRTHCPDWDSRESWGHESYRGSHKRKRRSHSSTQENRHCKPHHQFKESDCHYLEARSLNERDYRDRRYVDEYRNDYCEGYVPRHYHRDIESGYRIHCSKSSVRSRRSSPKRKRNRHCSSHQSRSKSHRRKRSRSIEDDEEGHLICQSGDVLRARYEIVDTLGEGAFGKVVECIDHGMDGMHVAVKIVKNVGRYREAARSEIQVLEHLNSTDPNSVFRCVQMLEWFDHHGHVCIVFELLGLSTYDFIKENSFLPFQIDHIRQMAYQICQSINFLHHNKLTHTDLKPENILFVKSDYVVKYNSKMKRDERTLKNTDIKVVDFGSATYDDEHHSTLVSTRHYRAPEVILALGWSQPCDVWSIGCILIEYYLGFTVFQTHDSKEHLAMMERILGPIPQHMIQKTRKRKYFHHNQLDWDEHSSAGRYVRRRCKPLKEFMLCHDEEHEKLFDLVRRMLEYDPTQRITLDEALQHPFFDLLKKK
T15 sequence (Q9Y243 whole entry): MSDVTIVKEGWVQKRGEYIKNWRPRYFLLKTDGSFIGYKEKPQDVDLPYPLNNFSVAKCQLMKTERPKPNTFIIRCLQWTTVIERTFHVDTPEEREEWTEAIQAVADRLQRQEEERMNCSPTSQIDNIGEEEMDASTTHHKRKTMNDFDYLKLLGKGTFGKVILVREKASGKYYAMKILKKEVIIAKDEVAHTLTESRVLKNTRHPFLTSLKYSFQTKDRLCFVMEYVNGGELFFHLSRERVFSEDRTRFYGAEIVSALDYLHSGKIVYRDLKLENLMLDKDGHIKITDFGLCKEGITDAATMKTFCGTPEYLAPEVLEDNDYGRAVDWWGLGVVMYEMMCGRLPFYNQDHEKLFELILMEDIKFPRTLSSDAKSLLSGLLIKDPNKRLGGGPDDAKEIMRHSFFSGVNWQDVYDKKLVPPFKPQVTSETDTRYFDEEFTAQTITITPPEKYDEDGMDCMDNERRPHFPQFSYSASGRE
T3 sequence (P27361 whole entry): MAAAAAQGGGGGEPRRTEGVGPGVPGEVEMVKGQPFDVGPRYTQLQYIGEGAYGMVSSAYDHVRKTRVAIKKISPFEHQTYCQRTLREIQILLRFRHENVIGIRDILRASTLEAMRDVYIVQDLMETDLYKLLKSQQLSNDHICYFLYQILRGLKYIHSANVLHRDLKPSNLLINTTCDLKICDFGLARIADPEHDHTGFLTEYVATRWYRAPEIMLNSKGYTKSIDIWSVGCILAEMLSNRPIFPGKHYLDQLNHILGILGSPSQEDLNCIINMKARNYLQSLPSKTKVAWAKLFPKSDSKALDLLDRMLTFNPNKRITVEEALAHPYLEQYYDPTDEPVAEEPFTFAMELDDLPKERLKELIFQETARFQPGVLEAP
T4 sequence (P78362 whole entry): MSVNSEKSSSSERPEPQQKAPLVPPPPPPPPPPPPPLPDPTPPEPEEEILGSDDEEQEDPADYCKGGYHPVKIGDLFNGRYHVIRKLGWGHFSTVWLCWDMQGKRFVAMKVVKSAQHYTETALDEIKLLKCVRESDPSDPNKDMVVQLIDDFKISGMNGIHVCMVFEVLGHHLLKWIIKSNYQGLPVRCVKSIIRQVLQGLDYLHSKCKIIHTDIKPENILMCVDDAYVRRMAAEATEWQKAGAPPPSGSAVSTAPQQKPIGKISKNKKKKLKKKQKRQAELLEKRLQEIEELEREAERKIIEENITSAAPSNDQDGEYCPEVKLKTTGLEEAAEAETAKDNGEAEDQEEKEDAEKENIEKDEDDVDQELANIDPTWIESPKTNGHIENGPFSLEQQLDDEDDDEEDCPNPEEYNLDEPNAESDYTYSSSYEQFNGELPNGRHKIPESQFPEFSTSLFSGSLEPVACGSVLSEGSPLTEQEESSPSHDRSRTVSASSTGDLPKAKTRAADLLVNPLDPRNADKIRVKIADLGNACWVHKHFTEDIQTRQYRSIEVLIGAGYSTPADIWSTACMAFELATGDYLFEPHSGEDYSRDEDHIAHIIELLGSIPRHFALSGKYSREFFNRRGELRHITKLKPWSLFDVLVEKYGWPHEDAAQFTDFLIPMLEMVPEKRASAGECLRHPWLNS
T11 sequence (P28482 whole entry): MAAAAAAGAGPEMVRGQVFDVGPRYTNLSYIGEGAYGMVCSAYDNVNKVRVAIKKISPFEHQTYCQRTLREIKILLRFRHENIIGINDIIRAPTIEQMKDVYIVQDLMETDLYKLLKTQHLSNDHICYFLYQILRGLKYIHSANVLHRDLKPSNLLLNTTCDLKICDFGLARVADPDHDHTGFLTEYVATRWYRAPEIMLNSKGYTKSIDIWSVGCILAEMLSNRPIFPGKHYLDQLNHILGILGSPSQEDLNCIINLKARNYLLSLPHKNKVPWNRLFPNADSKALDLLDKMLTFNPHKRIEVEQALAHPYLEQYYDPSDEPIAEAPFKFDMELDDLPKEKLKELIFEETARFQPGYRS

Compound	inhibition at 1 µM [1]	Effect on phosphorylation of SF3B1 (immunoblot) [2]	Effect on phosphorylation of SR proteins (immunoblot) [3]	inhibition at 1 µM [5]	inhibition at 1 µM [6]	IC50 [7]	IC50 [9]	inhibition at 1 µM [11]	inhibition at 1 µM [13]	inhibition at 1 µM [14]	inhibition at 1 µM [15]	IC50 [18]	inhibition at 1 µM [19]	EC50 [20]	further results
CNC(=O)c1nn(C)c2c1C(C)(C)Cc1cnc(Nc3ccc(N4CCN(C)CC4)cc3)nc1-2 [Compound 1, milciclib]	< 50%	reduced phosphorylation of both SR and SF3B1 proteins significantly	reduced phosphorylation of both SR and SF3B1 proteins significantly	< 50%	< 50%	13 nM	425 nM	< 50%	< 50%	< 50%	< 50%	3 nM	< 50%	9190 nM	inhibition at 1 µM ([4]; 40 min, read-out: SRPK3 IC50): < 50%; IC50 [8]: 5 nM; inhibition at 1 µM ([10]; 40 min, read-out: SRPK1 IC50): < 50%; IC50 [12]: 17 nM; IC50 [16]: 48 nM; inhibition at 1 µM ([17]; 40 min, read-out: AKT3 IC50): < 50%
Cc1nc(Nc2[nH]nc3c2CN(C(=O)N[C@H](CN(C)C)c2ccccc2)C3(C)C)c2sccc2n1 [Compound 2, PF-3758309]	< 50%	reduced phosphorylation of both SR and SF3B1 proteins significantly	reduced phosphorylation of both SR and SF3B1 proteins significantly	< 50%	< 50%	48 nM	485 nM	< 50%	< 50%	< 50%	< 50%	27 nM	< 50%	3440 nM	IC50 [4]: 189 nM; inhibition at 1 µM ([8]; 40 min, read-out: DYRK1B IC50): < 50%; IC50 [10]: 170 nM; inhibition at 1 µM ([12]; 40 min, read-out: DYRK1A IC50): < 50%; inhibition at 1 µM ([16]; 40 min, read-out: DYRK2 IC50): < 50%; IC50 [17]: 54 nM
